Legend:
ryegrass, Italian [1] = test: Test A postemergence; assay type: in vivo, Lolium multiflorum; details: 1000 g ai/ha, Postemergence; 0 to 100 scale
Text: (§1) Seeds of plant species selected from barnyardgrass (Echinochloa crusgalli), blackgrass (Alopecurus myosuroides), corn (Zea mays), foxtail, giant (giant foxtail, Setaria faberi), goosegrass (Eleusine indica), kochia (Bassia scoparia), oat, wild (wild oat, Avena fatua), pigweed, palmer (palmer amaranth, palmer pigweed, Amaranthus palmeri), Pigweed, Redroot (redroot pigweed, Amaranthus retroflexus), ragweed (common ragweed, Ambrosia artemisiifolia), ryegrass, Italian (italian ryegrass, Lolium multiflorum), soybean (Glycine max), and wheat (Triticum aestivum) were planted into a blend of loam soil and sand and treated preemergence with a directed soil spray using test chemicals formulated in a non-phytotoxic solvent mixture which included a surfactant. At the same time, plants selected from these crops and weed species and also galium (catchweed bedstraw, Galium aparine) and horseweed (Erigeron canadensis) were planted in pots containing the same blend of loam soil and sand and treated with postemergence applications of test chemicals formulated in the same manner. Plants ranged in height from 2 to 10 cm and were in the one- to two-leaf stage for the postemergence treatment. Treated plants and untreated controls were maintained in a greenhouse for 10 days, after which time all treated plants were compared to untreated controls and visually evaluated for injury. Plant response ratings, summarized in Table A, are based on a 0 to 100 scale where 0 is no effect and 100 is complete control. A dash (-) response means no test result.

horseweed = test: Test A postemergence; assay type: in vivo, Erigeron canadensis; details: 1000 g ai/ha, Postemergence; 0 to 100 scale
Text: as §1

pigweed, palmer [2] = test: Test A preemergence; assay type: in vivo, Amaranthus palmeri; details: 1000 g ai/ha, 0 to 100 scale (0 no effect, 100 complete control), 10 days
Text: as §1

goosegrass [3] = test: Test A postemergence; assay type: in vivo, Eleusine indica; details: 1000 g ai/ha, Postemergence; 0 to 100 scale
Text: as §1

blackgrass [4] = test: Test A preemergence; assay type: in vivo, Alopecurus myosuroides; details: 1000 g ai/ha, 0 to 100 scale (0 no effect, 100 complete control), 10 days
Text: as §1

ragweed [5] = test: Test A preemergence; assay type: in vivo, Ambrosia artemisiifolia; details: 1000 g ai/ha, 0 to 100 scale (0 no effect, 100 complete control), 10 days
Text: as §1

galium = test: Test A postemergence; assay type: in vivo, Galium aparine; details: 1000 g ai/ha, Postemergence; 0 to 100 scale
Text: as §1

foxtail, giant [6] = test: Test A postemergence; assay type: in vivo, Setaria faberi; details: 1000 g ai/ha, Postemergence; 0 to 100 scale
Text: as §1

goosegrass [7] = test: Test A preemergence; assay type: in vivo, Eleusine indica; details: 1000 g ai/ha, 0 to 100 scale (0 no effect, 100 complete control), 10 days
Text: as §1

foxtail, giant [8] = test: Test A preemergence; assay type: in vivo, Setaria faberi; details: 1000 g ai/ha, 0 to 100 scale (0 no effect, 100 complete control), 10 days
Text: as §1

ragweed [9] = test: Test A postemergence; assay type: in vivo, Ambrosia artemisiifolia; details: 1000 g ai/ha, Postemergence; 0 to 100 scale
Text: as §1

kochia [10] = test: Test A preemergence; assay type: in vivo, Bassia scoparia; details: 1000 g ai/ha, 0 to 100 scale (0 no effect, 100 complete control), 10 days
Text: as §1

kochia [11] = test: Test A postemergence; assay type: in vivo, Bassia scoparia; details: 1000 g ai/ha, Postemergence; 0 to 100 scale
Text: as §1

blackgrass [12] = test: Test A postemergence; assay type: in vivo, Alopecurus myosuroides; details: 1000 g ai/ha, Postemergence; 0 to 100 scale
Text: as §1

ryegrass, Italian [13] = test: Test A preemergence; assay type: in vivo, Lolium multiflorum; details: 1000 g ai/ha, 0 to 100 scale (0 no effect, 100 complete control), 10 days
Text: as §1

pigweed, palmer [14] = test: Test A postemergence; assay type: in vivo, Amaranthus palmeri; details: 1000 g ai/ha, Postemergence; 0 to 100 scale
Text: as §1

## O=C(c1ccnc(-n2cncn2)c1)N1CC(CF)Oc2c(Cl)cccc21 (centres unmarked) [Compound 36]
ryegrass, Italian [1]
  Plant response rating, Ryegrass, Italian: 40
horseweed
  Plant response rating, Horseweed: 0
pigweed, palmer [2]
  Plant response rating, Pigweed, Palmer: 40
Goosegrass [3]
  Plant response rating, Goosegrass: 30
Blackgrass [4]
  Plant response rating, Blackgrass: 70
Ragweed [5]
  Plant response rating, Ragweed: 30
galium
  Plant response rating, Galium: 90
foxtail, giant [6]
  Plant response rating, Foxtail, Giant: 90
Goosegrass [7]
  Plant response rating, Goosegrass: 90
foxtail, giant [8]
  Plant response rating, Foxtail, Giant: 100
Ragweed [9]
  Plant response rating, Ragweed: 60
Kochia [10]
  Plant response rating, Kochia: 20
Kochia [11]
  Plant response rating, Kochia: 60
Blackgrass [12]
  Plant response rating, Blackgrass: 60
ryegrass, Italian [13]
  Plant response rating, Ryegrass, Italian: 50
pigweed, palmer [14]
  Plant response rating, Pigweed, Palmer: 60

## C[C@H]1CN(C(=O)c2cccc(-n3cncn3)c2)c2cc([N+](=O)[O-])ccc2O1 [Compound 49]
ryegrass, Italian [1]
  Plant response rating, Ryegrass, Italian: 30
horseweed
  Plant response rating, Horseweed: 0
pigweed, palmer [2]
  Plant response rating, Pigweed, Palmer: 0
Goosegrass [3]
  Plant response rating, Goosegrass: 10
Blackgrass [4]
  Plant response rating, Blackgrass: 0
Ragweed [5]
  Plant response rating, Ragweed: 0
galium
  Plant response rating, Galium: 30
foxtail, giant [6]
  Plant response rating, Foxtail, Giant: 10
Goosegrass [7]
  Plant response rating, Goosegrass: 30
foxtail, giant [8]
  Plant response rating, Foxtail, Giant: 20
Ragweed [9]
  Plant response rating, Ragweed: 30
Kochia [10]
  Plant response rating, Kochia: 0
Kochia [11]
  Plant response rating, Kochia: 10
Blackgrass [12]
  Plant response rating, Blackgrass: 0
ryegrass, Italian [13]
  Plant response rating, Ryegrass, Italian: 30
pigweed, palmer [14]
  Plant response rating, Pigweed, Palmer: 0
